Measured values: ChEMBL document CHEMBL1201861, “Genomics of Drug Sensitity in Cancer screening data, Wellcome Trust Sanger Institute”
pIC50: −log10 of the molar value.

How the values were obtained:
Assay in all cases: cells
HMV-2 cell line = assay type: functional, cell-based, Homo sapiens; conditions: Homo sapiens, HMV-2;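 also: growth inhibition of HMV-II cells, read out with a cell viability assay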
Description: SANGER: Inhibition of human HMV-II cell growth in a cell viability assay.

NCI-H226 = assay type: functional, cell-based, Homo sapiens; conditions: Homo sapiens, NCI-H226;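 also: cell viability read-out used to gauge growth inhibition of the cells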
Description: SANGER: Inhibition of human NCI-H226 cell growth in a cell viability assay.

LU-139 = assay type: functional, cell-based; conditions: Homo sapiens
Description: SANGER: Inhibition of human LU-139 cell growth in a cell viability assay.

DEL = assay type: functional, cell-based; conditions: Homo sapiens;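 also: growth inhibition of the human DEL cell line, read out with a cell viability assay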
Description: SANGER: Inhibition of human DEL cell growth in a cell viability assay.

NCI-H2452 = assay type: functional, cell-based, Homo sapiens; conditions: Homo sapiens, NCI-H2452;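 also: growth inhibition of NCI-H2452 cells, read out with a cell viability assay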
Description: SANGER: Inhibition of human NCI-H2452 cell growth in a cell viability assay.

NCI-H2170 = assay type: functional, cell-based, Homo sapiens; conditions: Homo sapiens, NCI-H2170;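 also: cell viability assay measuring growth inhibition of human NCI-H2170 cancer cells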
Description: SANGER: Inhibition of human NCI-H2170 cell growth in a cell viability assay.

GOTO = assay type: functional, cell-based, Homo sapiens; conditions: Homo sapiens, GOTO;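 also: growth inhibition of GOTO cells, read out by a cell viability assay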
Description: SANGER: Inhibition of human GOTO cell growth in a cell viability assay.

TCC-SUP = assay type: functional, cell-based, Homo sapiens; conditions: Homo sapiens, TCC-SUP;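 also: growth inhibition of TCC-SUP cells, read out with a cell viability assay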
Description: SANGER: Inhibition of human TCCSUP cell growth in a cell viability assay.

U2OS = assay type: functional, cell-based, Homo sapiens, U-2-OS; conditions: Homo sapiens, U2OS;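 also: growth inhibition of human U-2-OS cells, determined with a cell viability assay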
Description: SANGER: Inhibition of human U-2-OS cell growth in a cell viability assay.

MOLT-4 = assay type: functional, cell-based; conditions: Homo sapiens;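 also: growth inhibition of MOLT-4 cells, determined with a cell viability readout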
Description: SANGER: Inhibition of human MOLT-4 cell growth in a cell viability assay.

DU-145 = assay type: functional, cell-based, Homo sapiens; conditions: Homo sapiens, DU-145
Description: SANGER: Inhibition of human DU-145 cell growth in a cell viability assay.

VA-ES-BJ = assay type: functional, cell-based, Homo sapiens; conditions: Homo sapiens, VA-ES-BJ;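 also: growth inhibition of the VA-ES-BJ cell line, read out by a cell viability assay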
Description: SANGER: Inhibition of human VA-ES-BJ cell growth in a cell viability assay.

HN = assay type: functional, cell-based, Homo sapiens; conditions: Homo sapiens, HN
Description: SANGER: Inhibition of human HN cell growth in a cell viability assay.

DOK = assay type: functional, cell-based, Homo sapiens; conditions: Homo sapiens, DOK;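 also: cell viability assay read-out, values reflect inhibition of cell growth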
Description: SANGER: Inhibition of human DOK cell growth in a cell viability assay.

TE-9 = assay type: functional, cell-based, Homo sapiens; conditions: Homo sapiens, TE-9;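 also: cell growth inhibition, measured with a cell viability readout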
Description: SANGER: Inhibition of human TE-9 cell growth in a cell viability assay.

NCI-H810 = assay type: functional, cell-based, Homo sapiens; conditions: Homo sapiens, NCI-H810;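 also: IC50 reflects inhibition of cancer cell line growth, read out with a cell viability assay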
Description: SANGER: Inhibition of human NCI-H810 cell growth in a cell viability assay.

EW-11 = assay type: functional, cell-based, Homo sapiens; conditions: Homo sapiens, EW-11;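 also: growth inhibition of human EW-11 cells, measured with a cell viability assay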
Description: SANGER: Inhibition of human EW-11 cell growth in a cell viability assay.

NCI-H2052 = assay type: functional, cell-based, Homo sapiens; conditions: Homo sapiens, NCI-H2052;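 also: growth inhibition of NCI-H2052 cells, read out with a cell viability assay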
Description: SANGER: Inhibition of human NCI-H2052 cell growth in a cell viability assay.

RT-112 = assay type: functional, cell-based, Homo sapiens; conditions: Homo sapiens, RT-112
Description: SANGER: Inhibition of human RT-112 cell growth in a cell viability assay.

ASPC1 = assay type: functional, cell-based, Homo sapiens; conditions: Homo sapiens, ASPC1;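 also: growth inhibition of AsPC-1 cells, read out with a cell viability assay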
Description: SANGER: Inhibition of human AsPC-1 cell growth in a cell viability assay.

SAS = assay type: functional, cell-based, Homo sapiens; conditions: Homo sapiens, SAS;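 also: growth inhibition of SAS cells, read out with a cell viability assay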
Description: SANGER: Inhibition of human SAS cell growth in a cell viability assay.

CAL-51 = assay type: functional, cell-based, Homo sapiens; conditions: Homo sapiens, CAL-51;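 also: human CAL-51 cell line, growth inhibition read out via a cell viability assay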
Description: SANGER: Inhibition of human CAL-51 cell growth in a cell viability assay.

NCI-H720 = assay type: functional, cell-based; conditions: Homo sapiens;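 also: growth inhibition of human NCI-H720 cells determined by a cell viability assay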
Description: SANGER: Inhibition of human NCI-H720 cell growth in a cell viability assay.

U-251 = assay type: functional, cell-based, Homo sapiens; conditions: Homo sapiens, U-251;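 also: growth inhibition of human U-251 cells, read out through a cell viability assay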
Description: SANGER: Inhibition of human U251 cell growth in a cell viability assay.

NEC8 = assay type: functional, cell-based, Homo sapiens; conditions: Homo sapiens, NEC8;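 also: growth inhibition of human NEC8 cells, read out by a cell viability assay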
Description: SANGER: Inhibition of human NEC8 cell growth in a cell viability assay.

COLO-679 = assay type: functional, cell-based, Homo sapiens; conditions: Homo sapiens, COLO-679
Description: SANGER: Inhibition of human COLO-679 cell growth in a cell viability assay.

SK-LMS-1 = assay type: functional, cell-based, Homo sapiens; conditions: Homo sapiens, SK-LMS-1;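 also: growth inhibition of human SK-LMS-1 cells, read out with a cell viability assay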
Description: SANGER: Inhibition of human SK-LMS-1 cell growth in a cell viability assay.

GP5d = assay type: functional, cell-based, Homo sapiens; conditions: Homo sapiens, GP5d;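 also: growth inhibition of human GP5d cells, read out with a cell viability assay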
Description: SANGER: Inhibition of human GP5d cell growth in a cell viability assay.

IA-LM = assay type: functional, cell-based, Homo sapiens; conditions: Homo sapiens, IA-LM;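 also: cell viability assay measuring growth inhibition of human IA-LM cells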
Description: SANGER: Inhibition of human IA-LM cell growth in a cell viability assay.

GI-ME-N = assay type: functional, cell-based, Homo sapiens; conditions: Homo sapiens, GI-ME-N;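 also: growth inhibition of human GI-ME-N cells, read out with a cell viability assay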
Description: SANGER: Inhibition of human GI-ME-N cell growth in a cell viability assay.

C-33-A = assay type: functional, cell-based, Homo sapiens; conditions: Homo sapiens, C-33-A;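 also: cell viability assay measuring growth inhibition of C-33-A cells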
Description: SANGER: Inhibition of human C-33-A cell growth in a cell viability assay.

RMG-I = assay type: functional, cell-based, Homo sapiens; conditions: Homo sapiens, RMG-I;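 also: growth inhibition of human RMG-I cells, read out with a cell viability assay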
Description: SANGER: Inhibition of human RMG-I cell growth in a cell viability assay.

MEG-01 = assay type: functional, cell-based; conditions: Homo sapiens;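 also: growth inhibition of MEG-01 cells, read out by a cell viability assay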
Description: SANGER: Inhibition of human MEG-01 cell growth in a cell viability assay.

HuO-3N1 = assay type: functional, cell-based, Homo sapiens; conditions: Homo sapiens, HuO-3N1;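 also: cell viability readout used to measure how strongly compounds suppress proliferation of human HuO-3N1 cells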
Description: SANGER: Inhibition of human HuO-3N1 cell growth in a cell viability assay.

OS-RC-2 = assay type: functional, cell-based, Homo sapiens; conditions: Homo sapiens, OS-RC-2;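 also: growth inhibition of human OS-RC-2 cells, measured by a cell viability assay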
Description: SANGER: Inhibition of human OS-RC-2 cell growth in a cell viability assay.

HT = assay type: functional, cell-based; conditions: Homo sapiens
Description: SANGER: Inhibition of human HT cell growth in a cell viability assay.

HGC-27 = assay type: functional, cell-based, Homo sapiens; conditions: Homo sapiens, HGC-27;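 also: growth inhibition of human HGC-27 cells, read out in a cell viability assay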
Description: SANGER: Inhibition of human HGC-27 cell growth in a cell viability assay.

CTV-1 = assay type: functional, cell-based; conditions: Homo sapiens;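 also: growth inhibition of the cell line, read out with a cell viability assay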
Description: SANGER: Inhibition of human CTV-1 cell growth in a cell viability assay.

HCC1395 = assay type: functional, cell-based, Homo sapiens; conditions: Homo sapiens, HCC1395;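 also: growth inhibition of HCC1395 cells, read out by a cell viability assay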
Description: SANGER: Inhibition of human HCC1395 cell growth in a cell viability assay.

LoVo = assay type: functional, cell-based; conditions: Homo sapiens;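 also: growth inhibition of human LoVo cells, read out with a cell viability assay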
Description: SANGER: Inhibition of human LoVo cell growth in a cell viability assay.

GMS-10 = assay type: functional, cell-based, Homo sapiens; conditions: Homo sapiens, GMS-10;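 also: growth inhibition of GMS-10 cells, read out as cell viability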
Description: SANGER: Inhibition of human GMS-10 cell growth in a cell viability assay.

COR-L23 = assay type: functional, cell-based, Homo sapiens; conditions: Homo sapiens, COR-L23;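 also: cell viability assay measuring how strongly compounds suppress growth of COR-L23 cells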
Description: SANGER: Inhibition of human COR-L23 cell growth in a cell viability assay.

SK-N-FI = assay type: functional, cell-based, Homo sapiens; conditions: Homo sapiens, SK-N-FI;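 also: cell viability assay measuring growth inhibition of human SK-N-FI cells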
Description: SANGER: Inhibition of human SK-N-FI cell growth in a cell viability assay.

PSN1 = assay type: functional, cell-based, Homo sapiens; conditions: Homo sapiens, PSN1;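 also: suppression of growth of human PSN1 cells, read out by a cell viability assay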
Description: SANGER: Inhibition of human PSN1 cell growth in a cell viability assay.

OVCAR-3 = assay type: functional, cell-based, Homo sapiens; conditions: Homo sapiens, OVCAR-3;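 also: growth inhibition of human OVCAR-3 cells, determined by a cell viability assay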
Description: SANGER: Inhibition of human OVCAR-3 cell growth in a cell viability assay.

KYSE-450 = assay type: functional, cell-based; conditions: Homo sapiens;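 also: cell growth inhibition measured by a viability assay in human KYSE-450 cells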
Description: SANGER: Inhibition of human KYSE-450 cell growth in a cell viability assay.

KE-37 = assay type: functional, cell-based; conditions: Homo sapiens;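 also: growth inhibition of KE-37 cells, read out with a cell viability assay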
Description: SANGER: Inhibition of human KE-37 cell growth in a cell viability assay.

PC-14 = assay type: functional, cell-based, Homo sapiens; conditions: Homo sapiens, PC-14;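 also: cell viability assay measuring inhibition of PC-14 cell growth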
Description: SANGER: Inhibition of human PC-14 cell growth in a cell viability assay.

CAL-12T = assay type: functional, cell-based, Homo sapiens; conditions: Homo sapiens, CAL-12T;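 also: growth inhibition of human CAL-12T cells, read out with a cell viability assay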
Description: SANGER: Inhibition of human CAL-12T cell growth in a cell viability assay.

NCI-H2030 = assay type: functional, cell-based, Homo sapiens; conditions: Homo sapiens, NCI-H2030;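 also: growth inhibition of human NCI-H2030 cells, read out by a cell viability assay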
Description: SANGER: Inhibition of human NCI-H2030 cell growth in a cell viability assay.

COc1cc([C@@H]2c3cc4c(cc3[C@@H](O[C@@H]3O[C@@H]5CO[C@@H](C)O[C@H]5[C@H](O)[C@H]3O)[C@H]3COC(=O)[C@H]23)OCO4)cc(OC)c1O [ETOPOSIDE]
pIC50 (HMV-2 cell line): 6.25 | pIC50 (NCI-H226): 4.95 | pIC50 (LU-139): 5.40 | pIC50 (DEL): 6.51 | pIC50 (NCI-H2452): < 4.80 | pIC50 (NCI-H2170): 5.73 | pIC50 (GOTO): 5.20 | pIC50 (TCC-SUP): 4.93 | pIC50 (U2OS): < 4.80 | pIC50 (MOLT-4): 6.38 | pIC50 (DU-145): 6.23 | pIC50 (VA-ES-BJ): 6.38 | pIC50 (HN): < 4.80 | pIC50 (DOK): < 4.80 | pIC50 (TE-9): 7.25 | pIC50 (NCI-H810): 5.80 | pIC50 (EW-11): 5.32 | pIC50 (NCI-H2052): 4.94 | pIC50 (RT-112): 6.21 | pIC50 (ASPC1): < 4.80 | pIC50 (SAS): 5.90 | pIC50 (CAL-51): 5.96 | pIC50 (NCI-H720): < 4.80 | pIC50 (U-251): 6.30 | pIC50 (NEC8): 6.27 | pIC50 (COLO-679): 6.79 | pIC50 (SK-LMS-1): 6.26 | pIC50 (GP5d): 5.23 | pIC50 (IA-LM): 5.46 | pIC50 (GI-ME-N): 5.01 | pIC50 (C-33-A): 6.06 | pIC50 (RMG-I): < 4.80 | pIC50 (MEG-01): 5.32 | pIC50 (HuO-3N1): 5.11 | pIC50 (OS-RC-2): 4.95 | pIC50 (HT): 4.82 | pIC50 (HGC-27): 6.99 | pIC50 (CTV-1): 6.39 | pIC50 (HCC1395): < 4.80 | pIC50 (LoVo): 5.69 | pIC50 (GMS-10): < 4.80 | pIC50 (COR-L23): 5.21 | pIC50 (SK-N-FI): < 4.80 | pIC50 (PSN1): < 4.80 | pIC50 (OVCAR-3): < 4.80 | pIC50 (KYSE-450): 5.43 | pIC50 (KE-37): 7.39 | pIC50 (PC-14): 5.01 | pIC50 (CAL-12T): 4.95 | pIC50 (NCI-H2030): 6.64

CCC1=C[C@@H]2CN(C1)Cc1c([nH]c3ccccc13)[C@@](C(=O)OC)(c1cc3c(cc1OC)N(C)[C@H]1[C@@](O)(C(=O)OC)[C@H](OC(C)=O)[C@]4(CC)C=CCN5CC[C@]31[C@@H]54)C2 [VINORELBINE]
pIC50 (HMV-2 cell line): 8.32 | pIC50 (NCI-H226): 7.60 | pIC50 (LU-139): 7.28 | pIC50 (DEL): 8.44 | pIC50 (NCI-H2452): < 7.19 | pIC50 (NCI-H2170): 7.94 | pIC50 (GOTO): < 7.19 | pIC50 (TCC-SUP): 7.57 | pIC50 (U2OS): < 7.19 | pIC50 (MOLT-4): 8.18 | pIC50 (DU-145): 8.32 | pIC50 (VA-ES-BJ): 8.37 | pIC50 (HN): < 7.19 | pIC50 (DOK): < 7.19 | pIC50 (TE-9): 8.97 | pIC50 (NCI-H810): 8.41 | pIC50 (EW-11): 7.37 | pIC50 (NCI-H2052): 7.21 | pIC50 (RT-112): 8.47 | pIC50 (ASPC1): < 7.19 | pIC50 (SAS): < 7.19 | pIC50 (CAL-51): 8.06 | pIC50 (NCI-H720): < 7.19 | pIC50 (U-251): 8.16 | pIC50 (NEC8): 7.86 | pIC50 (COLO-679): 8.74 | pIC50 (SK-LMS-1): 8.84 | pIC50 (GP5d): 8.11 | pIC50 (IA-LM): 8.43 | pIC50 (GI-ME-N): 8.24 | pIC50 (C-33-A): 8.14 | pIC50 (RMG-I): < 7.19 | pIC50 (MEG-01): 7.68 | pIC50 (HuO-3N1): 7.89 | pIC50 (OS-RC-2): 7.46 | pIC50 (HT): 7.67 | pIC50 (HGC-27): 8.73 | pIC50 (CTV-1): 8.30 | pIC50 (HCC1395): 7.80 | pIC50 (LoVo): 8.10 | pIC50 (GMS-10): < 7.19 | pIC50 (COR-L23): 8.00 | pIC50 (SK-N-FI): < 7.19 | pIC50 (PSN1): < 7.19 | pIC50 (OVCAR-3): 8.21 | pIC50 (KYSE-450): 8.01 | pIC50 (KE-37): 8.35 | pIC50 (PC-14): 8.49 | pIC50 (CAL-12T): 7.68 | pIC50 (NCI-H2030): 8.44

Cc1cnc(-c2cnc(NCCNc3ccc(C#N)cn3)nc2-c2ccc(Cl)cc2Cl)[nH]1 [LADUVIGLUSIB]
pIC50 (HMV-2 cell line): < 5.59 | pIC50 (NCI-H226): < 5.59 | pIC50 (LU-139): < 5.59 | pIC50 (DEL): < 5.59 | pIC50 (NCI-H2452): < 5.59 | pIC50 (NCI-H2170): < 5.59 | pIC50 (GOTO): < 5.59 | pIC50 (TCC-SUP): < 5.59 | pIC50 (U2OS): < 5.59 | pIC50 (MOLT-4): < 5.59 | pIC50 (DU-145): < 5.59 | pIC50 (VA-ES-BJ): < 5.59 | pIC50 (HN): < 5.59 | pIC50 (DOK): < 5.59 | pIC50 (TE-9): < 5.59 | pIC50 (NCI-H810): < 5.59 | pIC50 (EW-11): < 5.59 | pIC50 (NCI-H2052): < 5.59 | pIC50 (RT-112): < 5.59 | pIC50 (ASPC1): < 5.59 | pIC50 (SAS): < 5.59 | pIC50 (CAL-51): < 5.59 | pIC50 (NCI-H720): < 5.59 | pIC50 (U-251): < 5.59 | pIC50 (NEC8): < 5.59 | pIC50 (COLO-679): < 5.59 | pIC50 (SK-LMS-1): < 5.59 | pIC50 (GP5d): < 5.59 | pIC50 (IA-LM): < 5.59 | pIC50 (GI-ME-N): < 5.59 | pIC50 (C-33-A): < 5.59 | pIC50 (RMG-I): < 5.59 | pIC50 (MEG-01): < 5.59 | pIC50 (HuO-3N1): < 5.59 | pIC50 (OS-RC-2): < 5.59 | pIC50 (HT): < 5.59 | pIC50 (HGC-27): < 5.59 | pIC50 (CTV-1): < 5.59 | pIC50 (HCC1395): 5.75 | pIC50 (LoVo): < 5.59 | pIC50 (GMS-10): < 5.59 | pIC50 (COR-L23): < 5.59 | pIC50 (SK-N-FI): < 5.59 | pIC50 (PSN1): < 5.59 | pIC50 (OVCAR-3): < 5.59 | pIC50 (KYSE-450): < 5.59 | pIC50 (KE-37): < 5.59 | pIC50 (PC-14): < 5.59 | pIC50 (CAL-12T): < 5.59 | pIC50 (NCI-H2030): < 5.59
